For orientation: inhibition means how much of the control response was suppressed.

The results in this text go back to ChEMBL document CHEMBL3132826, “Investigation of a tetrahydroisoquinoline scaffold as dual-action steroid sulfatase inhibitors generated by parallel solid-phase synthesis” (Medchemcomm, 2013).

In test [1] the target is T1, Steryl-sulfatase (Homo sapiens) (UniProt P08842).
T1 sequence (whole entry): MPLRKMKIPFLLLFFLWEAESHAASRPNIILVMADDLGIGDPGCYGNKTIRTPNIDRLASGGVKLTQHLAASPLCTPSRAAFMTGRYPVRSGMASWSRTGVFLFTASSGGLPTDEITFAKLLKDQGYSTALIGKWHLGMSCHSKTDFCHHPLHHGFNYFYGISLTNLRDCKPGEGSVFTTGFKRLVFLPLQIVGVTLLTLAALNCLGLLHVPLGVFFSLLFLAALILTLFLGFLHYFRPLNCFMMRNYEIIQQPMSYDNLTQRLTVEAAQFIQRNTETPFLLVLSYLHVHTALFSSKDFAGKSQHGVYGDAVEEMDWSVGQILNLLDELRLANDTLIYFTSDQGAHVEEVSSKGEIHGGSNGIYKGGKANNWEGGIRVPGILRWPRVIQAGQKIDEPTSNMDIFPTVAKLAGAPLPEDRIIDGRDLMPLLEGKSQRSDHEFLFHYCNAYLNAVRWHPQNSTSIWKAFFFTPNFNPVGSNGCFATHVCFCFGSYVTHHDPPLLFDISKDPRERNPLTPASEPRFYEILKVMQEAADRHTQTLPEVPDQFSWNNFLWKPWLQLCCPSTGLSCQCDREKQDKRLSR
The test can be described thus: Inhibition of STS (unknown origin) expressed in HEK-293 cells assessed as transformation of [3H]-E1S into E1 at 1 uM by […]. The class given is cell-based. As to conditions: HEK293.

The target of test [2] is T1, Steryl-sulfatase (Homo sapiens). The test can be described thus: Inhibition of STS (unknown origin) expressed in HEK-293 cells assessed as transformation of [3H]-E1S into E1 at 0.1 uM by […]. It counts as cell-based. As to conditions: HEK293.

Molecules are shown by their SMILES.

`CCN(Cc1ccncc1)c1ccc(C(=O)N2CCc3ccc(OS(N)(=O)=O)cc3C2)cc1`: the results for the inhibition in test [1] and in test [2] were 86.6% and 47%, respectively.
The matching figures for `NS(=O)(=O)Oc1ccc2c(c1)CN(C(=O)c1cccc(N(CCCO)Cc3ccccc3)c1)CC2`: 37.3% and 25.8%.
In the same order, the values of `NS(=O)(=O)Oc1ccc2c(c1)CN(C(=O)c1ccc(N3CCN(Cc4ccccc4)CC3)cc1)CC2` are 75.8% and 20.8%.
In the same order, the values of `CN1CCN(c2ccc(C(=O)N3CCc4ccc(OS(N)(=O)=O)cc4C3)cc2)CC1` are 23.3% and 2.9%.
For the compound `CN(C)CCN(Cc1ccccc1)c1ccc(C(=O)N2CCc3ccc(OS(N)(=O)=O)cc3C2)cc1`, the inhibition in test [1] came out at 57.8%; in test [2], 13.9%.
The matching figures for `NS(=O)(=O)Oc1ccc2c(c1)CN(C(=O)c1cccc(N3CCOCC3)c1)CC2`: 20.9% and 0%.
In the same order, the values of `NS(=O)(=O)Oc1ccc2c(c1)CN(C(=O)c1ccc(N3CCC(N4CCCCC4)CC3)cc1)CC2` are 53.7% and 8.5%.
As for `NS(=O)(=O)Oc1ccc2c(c1)CN(C(=O)c1cccc(N(CCO)Cc3ccccc3)c1)CC2`, the inhibition in test [1] was 32.4%; in test [2], 26.7%.
As for `NS(=O)(=O)Oc1ccc2c(c1)CN(C(=O)c1cccc(N3CCN(Cc4ccccc4)CC3)c1)CC2`, the inhibition is 23.7% in test [1] and 0% in test [2].
The matching figures for `CN(C)CCCN(Cc1ccccc1)c1ccc(C(=O)N2CCc3ccc(OS(N)(=O)=O)cc3C2)cc1`: 61.6% and 16.2%.
Regarding `CCN(Cc1cccc(Br)c1)c1ccc(C(=O)N2CCc3ccc(OS(N)(=O)=O)cc3C2)cc1`, the values for the inhibition in test [1] and in test [2] were 97.2% and 80.2%, respectively.
The matching figures for `NS(=O)(=O)Oc1ccc2c(c1)CN(C(=O)c1ccc(N(Cc3ccccc3)Cc3ccco3)cc1)CC2`: 98.2% and 90.8%.
In the same order, the values of `CCCN(CCC)c1cccc(C(=O)N2CCc3ccc(OS(N)(=O)=O)cc3C2)c1` are 54.8% and 8.3%.
The matching figures for `CN(CCCN1CCCCC1)c1ccc(C(=O)N2CCc3ccc(OS(N)(=O)=O)cc3C2)cc1`: 40.7% and 17.4%.
Regarding `CCN(Cc1ccccn1)c1cccc(C(=O)N2CCc3ccc(OS(N)(=O)=O)cc3C2)c1`, the inhibition is 19.9% in test [1] and 6.5% in test [2].
As for `CCN(Cc1ccc(Br)cc1)c1cccc(C(=O)N2CCc3ccc(OS(N)(=O)=O)cc3C2)c1`, the inhibition in test [1] was 84.5%; in test [2], 24.2%.
In the same order, the values of `NS(=O)(=O)Oc1ccc2c(c1)CN(C(=O)c1ccc(N3CCCCC3)cc1)CC2` are 38.3% and 11.5%.
The matching figures for `CCN(Cc1ccccc1)Cc1ccc(S(=O)(=O)N2CCc3ccc(OS(N)(=O)=O)cc3C2)cc1`: 31% and 10%.
`CCN(Cc1ccccc1)Cc1ccc(CN2CCc3ccc(OS(N)(=O)=O)cc3C2)cc1`: the figures for the inhibition in test [1] and in test [2] were 17% and 1%, respectively.
With `CN(CCCN1CCCCC1)c1cccc(C(=O)N2CCc3ccc(OS(N)(=O)=O)cc3C2)c1`, the inhibition was 30.6% in test [1] and 24.1% in test [2].
In the same order, the values of `CN(CCN1CCCCC1)c1ccc(C(=O)N2CCc3ccc(OS(N)(=O)=O)cc3C2)cc1` are 26.8% and 0.3%.
The matching figures for `CN(C)CCCN(Cc1ccccc1)c1cccc(C(=O)N2CCc3ccc(OS(N)(=O)=O)cc3C2)c1`: 26% and 23.8%.
In the same order, the values of `NS(=O)(=O)Oc1ccc2c(c1)CN(C(=O)c1ccc(N3CCN(c4ncccn4)CC3)cc1)CC2` are 41.9% and 14.7%.
Turning to `CCN(Cc1cccnc1)c1ccc(C(=O)N2CCc3ccc(OS(N)(=O)=O)cc3C2)cc1`, the figures for the inhibition in test [1] and in test [2] were 85.2% and 35.7%, respectively.
The matching figures for `CN(C)CCN(Cc1ccccc1)c1cccc(C(=O)N2CCc3ccc(OS(N)(=O)=O)cc3C2)c1`: 28.6% and 0%.
As for `CCN(Cc1ccccn1)c1ccc(C(=O)N2CCc3ccc(OS(N)(=O)=O)cc3C2)cc1`, the inhibition in test [1] amounted to 87.7%; in test [2] it was 42.5%.
In the same order, the values of `CN(C)CCN(CCN(C)C)c1ccc(C(=O)N2CCc3ccc(OS(N)(=O)=O)cc3C2)cc1` are 15.9% and 3.8%.
In the same order, the values of `CC(C)CCN(CCC(C)C)c1cccc(C(=O)N2CCc3ccc(OS(N)(=O)=O)cc3C2)c1` are 75.9% and 32.3%.
In the same order, the values of `NS(=O)(=O)Oc1ccc2c(c1)CN(C(=O)c1ccc(N3CCc4ccccc4C3)cc1)CC2` are 83% and 56%.
As for `NS(=O)(=O)Oc1ccc2c(c1)CN(C(=O)c1cccc(N(Cc3ccccc3)Cc3ccco3)c1)CC2`, the inhibition stood at 90.5% in test [1] and 27.5% in test [2].
In the same order, the values of `CN1CCN(c2cccc(C(=O)N3CCc4ccc(OS(N)(=O)=O)cc4C3)c2)CC1` are 12.6% and 0%.
In the same order, the values of `CCN(Cc1ccc(F)cc1)c1ccc(C(=O)N2CCc3ccc(OS(N)(=O)=O)cc3C2)cc1` are 91.2% and 69.1%.
In the same order, the values of `CCN(Cc1ccc(F)cc1)c1cccc(C(=O)N2CCc3ccc(OS(N)(=O)=O)cc3C2)c1` are 66.5% and 10.9%.
Turning to `CCCN(Cc1ccccc1)c1cccc(C(=O)N2CCc3ccc(OS(N)(=O)=O)cc3C2)c1`, the inhibition in test [1] came out at 67.4%; in test [2], 23.1%.
With `CCN(Cc1cccnc1)c1cccc(C(=O)N2CCc3ccc(OS(N)(=O)=O)cc3C2)c1`, the inhibition in test [1] was 33.5%; in test [2] it was 14.3%.
In the same order, the values of `CCN(Cc1cccc(Br)c1)c1cccc(C(=O)N2CCc3ccc(OS(N)(=O)=O)cc3C2)c1` are 24.9% and 20.9%.
In the same order, the values of `CCN(Cc1ccccc1)c1cccc(C(=O)N2CCc3ccc(OS(N)(=O)=O)cc3C2)c1` are 69% and 17.3%.
In the same order, the values of `NS(=O)(=O)Oc1ccc2c(c1)CN(C(=O)c1cccc(N3CCC(Cc4ccccc4)CC3)c1)CC2` are 41.9% and 1.4%.
Take `NS(=O)(=O)Oc1ccc2c(c1)CN(C(=O)c1cccc(N3CCN(c4ncccn4)CC3)c1)CC2`: the inhibition in test [1] is 24.4%; in test [2] it was 1.6%.
In the same order, the values of `NS(=O)(=O)Oc1ccc2c(c1)CN(C(=O)c1cccc(N3CCc4ccccc4C3)c1)CC2` are 50.2% and 24.1%.
In the same order, the values of `NS(=O)(=O)Oc1ccc2c(c1)CN(C(=O)c1ccc(N3CCOCC3)cc1)CC2` are 50.6% and 10.9%.
The matching figures for `NS(=O)(=O)Oc1ccc2c(c1)CN(C(=O)c1ccc(N3CCSCC3)cc1)CC2`: 80.2% and 32.3%.
Consider `CCN(Cc1ccncc1)c1cccc(C(=O)N2CCc3ccc(OS(N)(=O)=O)cc3C2)c1`, for which the inhibition in test [1] came to 52.8%; in test [2] it was 33.3%.
For `CN(C)CCN(CCN(C)C)c1cccc(C(=O)N2CCc3ccc(OS(N)(=O)=O)cc3C2)c1`, the inhibition in test [1] turned out to be 17.1%; in test [2] it was 0%.
Turning to `CCCN(Cc1ccccc1)c1ccc(C(=O)N2CCc3ccc(OS(N)(=O)=O)cc3C2)cc1`, the inhibition worked out at 94.3% in test [1] and 64.8% in test [2].
In the same order, the values of `NS(=O)(=O)Oc1ccc2c(c1)CN(C(=O)c1cccc(N3CCC(N4CCCCC4)CC3)c1)CC2` are 8% and 0%.
The matching figures for `NS(=O)(=O)Oc1ccc2c(c1)CN(C(=O)c1ccc(N(CCCO)Cc3ccccc3)cc1)CC2`: 64.3% and 5.7%.
In the same order, the values of `NS(=O)(=O)Oc1ccc2c(c1)CN(C(=O)c1cccc(N3CCSCC3)c1)CC2` are 39.6% and 2.3%.
Consider `NS(=O)(=O)Oc1ccc2c(c1)CN(C(=O)c1ccc(N(CCO)Cc3ccccc3)cc1)CC2`, for which the inhibition was found to be 78% in test [1] and 27.9% in test [2].
In the same order, the values of `CN(CCN1CCCCC1)c1cccc(C(=O)N2CCc3ccc(OS(N)(=O)=O)cc3C2)c1` are 30.8% and 24.5%.
The matching figures for `CC(C)CCN(CCC(C)C)c1ccc(C(=O)N2CCc3ccc(OS(N)(=O)=O)cc3C2)cc1`: 90.8% and 47%.
The matching figures for `CCN(Cc1ccc(Br)cc1)c1ccc(C(=O)N2CCc3ccc(OS(N)(=O)=O)cc3C2)cc1`: 95.9% and 78.2%.
Regarding `NS(=O)(=O)Oc1ccc2c(c1)CN(C(=O)c1cccc(N3CCCCC3)c1)CC2`, the inhibition was 11.9% in test [1] and 1% in test [2].
